Here are results for 23 molecules from ChEMBL document CHEMBL4673257, “Azepino-indazoles as calcitonin gene-related peptide (CGRP) receptor antagonists” (Bioorg Med Chem Lett, 2021).

The target of series [1] is T1, Calcitonin gene-related peptide type 1 receptor (Homo sapiens, UniProt O60894+Q16602). The series is described as follows: Antagonist activity at human CGRP receptor.
Series [2] in a line: Oral bioavailability in rat at 10 mg/kg. To be noted: in vivo. The class given is ADME, organism-based.
A short description of series [3]: Metabolic stability in rat liver microsomes assessed as half life. Type of series: ADME, Microsome. (Liver microsomes are vesicles of endoplasmic reticulum, rich in cytochrome P450 enzymes.)
Series [4] can be described thus: Protein binding human plasma assessed as unbound fraction. The class given is ADME, cell-free.
Series [5] relates to Callithrix jacchus. As to the kind of experiment: Antimigraine activity in human CGRPalpha-induced migraine marmoset model assessed as reduction in facial blood flow at 5 mg/kg, sc administered 30 mins after CGRP stimulation and measured after 105 mins by laser doppler method relative to control. The class given is functional. Set-up: scale not given: the % may be the effect or the level left. To be noted: time 135 min, 2.25 h.

The subject of series [6] is Callithrix jacchus. As to the kind of experiment: Antimigraine activity in human CGRPalpha-induced migraine marmoset model assessed as reduction in facial blood flow at 5 mg/kg, sc administered 30 mins after CGRPalpha stimulation measured after 15 mins by laser doppler method relative to control. The class given is functional. To be noted: time 45 min, 0.75 h. Also noted: scale not given: the % may be the effect or the level left.

Series [7] has as its target T1, Calcitonin gene-related peptide type 1 receptor. As to the kind of experiment: Antagonist activity at human CGRP receptor in human SK-N-MC cells assessed as inhibition of CGRP-induced cAMP production. Type of series: functional, cell-based.
The subject of series [8] is Callithrix jacchus. As to the kind of experiment: Antimigraine activity in human CGRPalpha-induced migraine marmoset model assessed as reduction in facial blood flow at 5 mg/kg, sc administered 30 mins after CGRP stimulation and measured after 60 mins by laser doppler method relative to control. Also noted: scale not given: the % may be the effect or the level left. Type of series: functional. To be noted: time 90 min, 1.5 h.

A short description of series [9]: Metabolic stability in monkey liver microsomes assessed as half life. Type of series: ADME, Macaca mulatta, Microsome. To be noted: rhesus monkey.
Series [10] can be described thus: Metabolic stability in dog liver microsomes assessed as half life. Type of series: ADME, Canis lupus familiaris, Microsome.
Series [11] in a line: Metabolic stability in human liver microsomes assessed as half life. Type of series: ADME, Microsome.

pIC50, pKi: −log10 of the molar value.

T1 sequence (Q16602 whole entry, one chain of several): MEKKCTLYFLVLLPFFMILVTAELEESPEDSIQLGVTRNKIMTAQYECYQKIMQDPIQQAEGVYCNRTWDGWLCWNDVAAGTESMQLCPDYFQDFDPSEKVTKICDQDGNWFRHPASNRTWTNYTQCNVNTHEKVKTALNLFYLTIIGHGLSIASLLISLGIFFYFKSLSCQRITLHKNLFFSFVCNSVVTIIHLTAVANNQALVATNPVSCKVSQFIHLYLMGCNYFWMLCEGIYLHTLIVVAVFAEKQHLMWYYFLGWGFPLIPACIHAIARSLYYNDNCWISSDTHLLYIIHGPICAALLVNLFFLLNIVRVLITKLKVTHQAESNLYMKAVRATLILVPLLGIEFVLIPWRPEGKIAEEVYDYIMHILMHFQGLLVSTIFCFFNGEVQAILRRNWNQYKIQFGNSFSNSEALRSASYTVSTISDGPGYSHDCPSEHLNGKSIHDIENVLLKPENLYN

On to `CC(C)(C)CN1Cc2c(cc(Cl)c3[nH]ncc23)C[C@@H](CC(=O)N2CCC(c3cc4ccccc4[nH]c3=O)CC2)C1=O`, for which the pKi (usually the negative decadic logarithm of the Ki, by convention in mol/L) in [1] was 9.12. The bioavailability – broadly, dose-corrected exposure relative to a reference, in per cent – in series [2] was found to be 4.5%.
Take `O=C(C[C@@H]1Cc2cc(Cl)c3[nH]ncc3c2CN(CC(F)(F)F)C1=O)N1CCC(N2Cc3ccccc3NC2=O)CC1`: the pKi in series [1] is 9.64.
As for `O=C(C[C@@H]1Cc2cc(Cl)c3[nH]ncc3c2CN(CC(F)(F)F)C1=O)N1CCC(n2c(=O)[nH]c3ncccc32)CC1`, in series [1], the pKi was 10.05. For the same molecule, the bioavailability in series [2] was determined as 5.5%.
Turning to `O=C(C[C@@H]1Cc2cc(Cl)c3[nH]ncc3c2CN(CC(F)(F)F)C1=O)N1CCC(N2CCc3ccccc3NC2=O)CC1`, the half-life – broadly, the time needed for the level to fall by half in the phase considered – in series [3] was found to be 2.2 min; in [9], 2.4 min; in [10], 3.1 min; in series [11] it was 3.6 min. Besides, the fraction unbound (in general, free concentration divided by total concentration) in [4] turned out to be 0.028. The results for the Activity in the series with Callithrix jacchus [5], with Callithrix jacchus [6] and in the series with Callithrix jacchus [8] were 47%, 27% and 41%, respectively. For the same molecule, the pKi in series [1] is 10.00. The molecule further registered a bioavailability in series [2] of 17%. In addition, in series [7], the negative-log IC50 (pIC50) (in general, the negative decadic logarithm of the IC50, by convention in mol/L) is 9.57.
In the case of `O=C(N[C@@H]1Cc2ccc3[nH]ncc3c2CN(CCc2ccncc2)C1=O)N1CCC(N2Cc3ccccc3NC2=O)CC1`, the pKi in series [1] was 8.15.
As for `O=C(C[C@@H]1Cc2cc(Cl)c3[nH]ncc3c2CN(CC(F)(F)F)C1=O)N1CCC(c2cc3ccccc3[nH]c2=O)CC1`, the pKi in [1] was 9.27. In series [2], the bioavailability is 3.4%.
The like results for `CC(C)(C)CN1Cc2c(cc(Cl)c3[nH]ncc23)C[C@@H](CC(=O)N2CCC(N3Cc4cccc(F)c4NC3=O)CC2)C1=O` were, in that order, 9.51 and 4.7%.
As to `CC(C)(C)CN1Cc2c(cc(Cl)c3[nH]ncc23)C[C@@H](CC(=O)N2CCC(c3cc4cccc(F)c4[nH]c3=O)CC2)C1=O`, the pKi in series [1] is 8.22. The molecule further gave a bioavailability in series [2] of 12%.
The matching figures for `CC(C)(C)CN1Cc2c(cc(Cl)c3[nH]ncc23)C[C@@H](CC(=O)N2CCC(N3Cc4ccccc4NC3=O)CC2)C1=O`: 9.39 and 1.8%.
In the case of `CN(C)CCN1Cc2c(ccc3[nH]ncc23)C[C@@H](NC(=O)N2CCC(N3Cc4ccccc4NC3=O)CC2)C1=O`, the pKi in series [1] is 6.77.
Take `CC(C)(C)CN1Cc2c(ccc3[nH]ncc23)C[C@@H](NC(=O)N2CCC(N3Cc4ccccc4NC3=O)CC2)C1=O`: the pKi in [1] is 8.31.
The same measure, in the same setting: to `O=C(C[C@@H]1Cc2cc(Cl)c3[nH]ncc3c2CN(CC(F)(F)F)C1=O)N1CCC(N2CCc3cccc(F)c3NC2=O)CC1` belongs 8.04.
Still for that read-out and setting: in the case of `O=C(C[C@@H]1Cc2cc(Cl)c3[nH]ncc3c2CN(CC(F)(F)F)C1=O)N1CCC(n2c(=O)[nH]c3ccccc32)CC1` it was 8.48; in that of `CC(C)N1Cc2c(ccc3[nH]ncc23)C[C@@H](NC(=O)N2CCC(N3Cc4ccccc4NC3=O)CC2)C1=O`, 7.23.
Still for that read-out and setting: in the case of `O=C(N[C@@H]1Cc2cc(Cl)c3[nH]ncc3c2CN(Cc2ccccc2)C1=O)N1CCC(N2Cc3ccccc3NC2=O)CC1` it was 9.00; in that of `O=C(N[C@@H]1Cc2ccc3[nH]ncc3c2CN(CCN2CCOCC2)C1=O)N1CCC(N2Cc3ccccc3NC2=O)CC1`, 7.30.
Regarding `O=C(N[C@@H]1Cc2ccc3[nH]ncc3c2CN(Cc2ccccc2)C1=O)N1CCC(N2Cc3ccccc3NC2=O)CC1`, the pKi in series [1] was 7.92.
The same measure, in the same setting: to `O=C(N[C@@H]1Cc2ccc3[nH]ncc3c2CN(Cc2ccncc2)C1=O)N1CCC(N2Cc3ccccc3NC2=O)CC1` belongs 7.66; to `O=C(C[C@@H]1Cc2cc(Cl)c3[nH]ncc3c2CN(CC(F)(F)F)C1=O)N1CCC(c2cc3cccc(F)c3[nH]c2=O)CC1`, 8.22; to `CC(C)CN1Cc2c(ccc3[nH]ncc23)C[C@@H](NC(=O)N2CCC(N3Cc4ccccc4NC3=O)CC2)C1=O`, 7.85.
On the same count and under the same terms, in the case of `O=C(N[C@@H]1Cc2ccc3[nH]ncc3c2CN(C2CCNCC2)C1=O)N1CCC(N2Cc3ccccc3NC2=O)CC1` it was 6.54.
Still for that read-out and setting: to `CN1Cc2c(ccc3[nH]ncc23)C[C@@H](NC(=O)N2CCC(N3Cc4ccccc4NC3=O)CC2)C1=O` belongs 6.43; to `CC(C)(C)CN1Cc2c(cc(Cl)c3[nH]ncc23)C[C@@H](NC(=O)N2CCC(N3Cc4ccccc4NC3=O)CC2)C1=O`, 8.82.
